pKi: −log10 of the molar value.
biological target: T1, histamine-3 receptor (Rattus norvegicus, UniProt Q9QYN8); assay: Histamine-3 receptor binding, displacement of (3H)-N-α-methylhistamine from rat cortical membranes; conditions: male Sprague-Dawley rat brain cortical membranes; (3H)-N-α-methylhistamine ~0.6 nM; 30 minutes at 25° C.; Cheng-Prusoff
T1 construct: Rat cortical membranes (12 mg wet weight/tube) were incubated with; from tissue; host or cells: male Sprague-Dawley rat brain cortex membranes
T1 sequence (Q9QYN8 whole entry): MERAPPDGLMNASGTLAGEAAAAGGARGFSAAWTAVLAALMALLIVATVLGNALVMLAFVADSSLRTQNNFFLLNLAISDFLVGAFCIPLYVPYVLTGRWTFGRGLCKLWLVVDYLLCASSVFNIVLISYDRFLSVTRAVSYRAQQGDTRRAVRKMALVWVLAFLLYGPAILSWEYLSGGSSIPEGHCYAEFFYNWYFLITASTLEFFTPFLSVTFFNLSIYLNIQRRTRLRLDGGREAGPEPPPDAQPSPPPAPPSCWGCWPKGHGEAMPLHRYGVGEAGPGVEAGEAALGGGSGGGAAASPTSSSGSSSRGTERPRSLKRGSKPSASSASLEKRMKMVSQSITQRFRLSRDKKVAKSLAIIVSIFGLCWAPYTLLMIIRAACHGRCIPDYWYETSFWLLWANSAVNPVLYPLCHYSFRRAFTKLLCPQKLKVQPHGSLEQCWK

| Compound | pKi |
| --- | --- |
| C[C@@H]1CC[C@@H](C)N1C(=O)c1ccc(-c2ccc(OCCCN3CCOCC3)cc2)cc1 [Example 8, 4-{3-[(4′-{[(2R,5R)-2,5-dimethylpyrrolidinyl]carbonyl}[1,1′-biphenyl]-4-yl)oxy]propyl}morpholine] | 6.94 |
| C[C@H](c1ccccc1)N(C)CCCOc1ccc(-c2ccc(C(=O)N3CCCC3)cc2)cc1 [Example 11, N-methyl-N-[(1R)-1-phenylethyl]-N-(3-{[4′-(1-pyrrolidinylcarbonyl)[1,1′-biphenyl]-4-yl]oxy}propyl)amine] | 6.44 |
| CC(C)NC(=O)c1ccc(-c2ccc(OCCCN3[C@H](C)CC[C@H]3C)cc2)cc1 [Example 1, 4′-{3-[(2R,5R)-2,5-dimethylpyrrolidinyl]propoxy}-N-isopropyl[1,1′-biphenyl]-4-carboxamide] | 8.55 |
| CC1CCCN1C(=O)c1ccc(-c2ccc(OCCCN3[C@H](C)CC[C@H]3C)cc2)cc1 (stereo partly drawn) [Example 3, (2R,5R)-2,5-dimethyl-1-[3-({4′-[(2-methyl-1-pyrrolidinyl)carbonyl][1,1′-biphenyl]-4-yl}oxy)propyl]pyrrolidine] | 9.00 |
| CC1CCN(CCCOc2ccc(-c3ccc(C(=O)N4[C@H](C)CC[C@H]4C)cc3)cc2)CC1 [Example 7, 1-{3-[(4′-{[(2R,5R)-2,5-dimethylpyrrolidinyl]carbonyl}[1,1′-biphenyl]-4-yl)oxy]propyl}-4-methylpiperidine] | 8.44 |
| CC(C)NCCCOc1ccc(-c2ccc(C(=O)N3[C@H](C)CC[C@H]3C)cc2)cc1 [Example 4, 3-[(4′-{[(2R,5R)-2,5-dimethylpyrrolidinyl]carbonyl}[1,1′-biphenyl]-4-yl)oxy]-N-isopropyl-1-propanamine] | 6.29 |

The remaining compounds from weak to strong by pKi, led by results:

| pKi | Compound |
| --- | --- |
| 6.42 | CN(CCCOc1ccc(-c2ccc(C(=O)N3CCCC3)cc2)cc1)[C@@H]1CCN(Cc2ccccc2)C1 [Example 12, N-[(3R)-1-benzylpyrrolidinyl]-N-methyl-N-(3-{[4′-(1-pyrrolidinylcarbonyl)[1,1′-biphenyl]-4-yl]oxy}propyl)amine] |
| 7.10 | O=C(c1ccc(-c2ccc(OCCCN3CCC[C@@H]3CO)cc2)cc1)N1CCCC1 [Example 13, [(2R)-1-(3-{[4′-(1-pyrrolidinylcarbonyl)[1,1′-biphenyl]-4-yl]oxy}propyl)pyrrolidinyl]methanol] |
| 7.15 | O=C(c1ccc(-c2ccc(OCCCN3CCC[C@@H](O)C3)cc2)cc1)N1CCCC1 [Example 16, (3R)-1-(3-{[4′-(1-pyrrolidinylcarbonyl)[1,1′-biphenyl]-4-yl]oxy}propyl)-3-piperidinol] |
| 7.86 | CCN(CC)CCCOc1ccc(-c2ccc(C(=O)N3[C@H](C)CC[C@H]3C)cc2)cc1 [Example 5, 3-[(4′-{[(2R,5R)-2,5-dimethylpyrrolidinyl]carbonyl}[1,1′-biphenyl]-4-yl)oxy]-N,N-diethyl-1-propanamine] |
| 8.14 | C[C@@H]1CCC[C@H](C)N1CCCOc1ccc(-c2ccc(C(=O)N3CCCC3)cc2)cc1 [Example 15, (2R,6S)-2,6-dimethyl-1-(3-{[4′-(1-pyrrolidinylcarbonyl)[1,1′-biphenyl]-4-yl]oxy}propyl)piperidine] |
| 8.22 | O=C(c1ccc(-c2ccc(OCCCN3CCC[C@H]3CO)cc2)cc1)N1CCCC1 [Example 14, [(2S)-1-(3-{[4′-(1-pyrrolidinylcarbonyl)[1,1′-biphenyl]-4-yl]oxy}propyl)pyrrolidinyl]methanol] |
| 8.58 | CC1CCN(C(=O)c2ccc(-c3ccc(OCCCN4[C@H](C)CC[C@H]4C)cc3)cc2)CC1 [Example 9, 1-[(4′-{3-[(2R,5R)-2,5-dimethylpyrrolidinyl]propoxy}[1,1′-biphenyl]-4-yl)carbonyl]-4-methylpiperidine] |

Source: US20020111340A1, “Aminoalkoxybiphenylcarboxamides as histamine-3 receptor ligands and their therapeutic applications” (priority 2000, published 2002)
